One experiment concerns B. licheniformis PA. Description: Antibiogram by disc diffusion method. The format is cell-based, Bacillus licheniformis.
The test system of a further experiment is B. subtilis HE. The experiment in a line: Antibiogram by disc diffusion method. The format is cell-based, Bacillus subtilis. The following applies: for Zone of inhibition: 6 mm antibiotic discs, Mueller-Hinton plates, 18 hours at 37° C., strain B. subtilis HE. Background: Agar diffusion results depend on both activity and mobility in agar.
Setting [1] is: 6 mm antibiotic discs, Mueller-Hinton plates, 18 hours at 37° C., strain B. licheniformis PA.

This note sets out measurements from US20050271643A1, “Bacterial strains, compositions including same and probiotic use thereof” (priority 2003, published 2005).

Where two headings read alike, the source gives them in different places.

`NCC[C@H](O)C(=O)N[C@@H]1C[C@H](N)[C@@H](O[C@H]2O[C@H](CN)[C@@H](O)[C@H](O)[C@H]2O)[C@H](O)[C@H]1O[C@H]1O[C@H](CO)[C@@H](O)[C@H](N)[C@H]1O` [Amikacin]: the results for the Zone of inhibition in the experiment on B. licheniformis PA (setting [1]) and in the experiment with B. subtilis HE were 18 ± 0.1 mm and 20 ± 0.2 mm, respectively.

For `CC1(C)S[C@@H]2[C@H](NC(=O)[C@H](N)c3ccc(O)cc3)C(=O)N2[C@H]1C(=O)O` [Amoxicillin], the Zone of inhibition in the experiment on B. licheniformis PA (setting [1]) worked out at 16 ± 0.1 mm; in the experiment on B. subtilis HE it was 18 ± 0.1 mm.

For the compound `CC1(C)S[C@@H]2[C@H](NC(=O)[C@H](N)c3ccccc3)C(=O)N2[C@H]1C(=O)O` [Ampicillin], the values for the Zone of inhibition in the experiment with B. licheniformis PA (setting [1]) and with B. subtilis HE were 0 mm and 10 ± 0.3 mm, respectively. Besides, the “Sensitivity or resistance of the strain to the antibiotic (in words)” value (shortened to “Sensitivity or resistance of the strain”) in the experiment with B. licheniformis PA (strain B. licheniformis PA) is “resistant”; in the experiment on B. subtilis HE, “sensitive”.

Turning to `CC1(C)S[C@@H]2[C@H](NC(=O)[C@H](NC(=O)N3CCNC3=O)c3ccccc3)C(=O)N2[C@H]1C(=O)O` [Azlocillin], the values for the Zone of inhibition in the experiment with B. licheniformis PA (setting [1]) and in the experiment on B. subtilis HE were 16 ± 0.1 mm and 18 ± 0.2 mm, respectively.

For `C[C@H]1[C@H](NC(=O)/C(=N\OC(C)(C)C(=O)O)c2csc(N)n2)C(=O)N1S(=O)(=O)O` [Aztreonam], the Zone of inhibition with B. licheniformis PA (setting [1]) and in the experiment with B. subtilis HE was 0 mm each time. Besides, the “Sensitivity or resistance of the strain” value in the experiment with B. subtilis HE is given as “resistant”.

Compound `CC1(C)S[C@@H]2[C@H](NC(=O)Cc3ccccc3)C(=O)N2[C@H]1C(=O)O` [Benzylpenicillin] registered a Zone of inhibition in the experiment with B. licheniformis PA (setting [1]) of 0 mm. In the experiment with B. subtilis HE, the “Sensitivity or resistance of the strain” value is “sensitive” and the Zone of inhibition was found to be 8 ± 0.1 mm.

Regarding `CC1(C)S[C@@H]2[C@H](NC(=O)C(C(=O)O)c3ccccc3)C(=O)N2[C@H]1C(=O)O` (stereo partly shown) [Carbenicillin], the results for the Zone of inhibition in the experiment with B. licheniformis PA (setting [1]) and in the experiment with B. subtilis HE were 18 ± 0.3 mm and 24 ± 0.4 mm, respectively. For the same compound, the “Sensitivity or resistance of the strain” value in the experiment with B. licheniformis PA (strain B. licheniformis PA) and with B. subtilis HE was “sensitive” throughout.

In the case of `Cn1nnnc1SCC1=C(C(=O)O)N2C(=O)[C@@H](NC(=O)[C@H](O)c3ccccc3)[C@H]2SC1` [Cefamandol], the Zone of inhibition in the experiment on B. licheniformis PA (setting [1]) is given as 16 ± 0.1 mm; with B. subtilis HE, 37 ± 0.1 mm.

In the case of `CCN1CCN(C(=O)N[C@@H](C(=O)N[C@@H]2C(=O)N3C(C(=O)O)=C(CSc4nnnn4C)CS[C@H]23)c2ccc(O)cc2)C(=O)C1=O` [Cefoperazon], the Zone of inhibition in the experiment on B. licheniformis PA (setting [1]) amounted to 12 ± 0.2 mm; with B. subtilis HE, 16 ± 0.1 mm.

`CO/N=C(\C(=O)N[C@@H]1C(=O)N2C(C(=O)O)=C(COC(C)=O)CS[C@H]12)c1csc(N)n1` [Cefotaxim]: the Zone of inhibition in the experiment with B. licheniformis PA (setting [1]) is 10 ± 0.2 mm; with B. subtilis HE, 14 ± 0.2 mm.

As to `CO[C@@]1(NC(=O)Cc2cccs2)C(=O)N2C(C(=O)O)=C(COC(N)=O)CS[C@@H]21` [Cefoxitin], the values for the Zone of inhibition in the experiment with B. licheniformis PA (setting [1]) and with B. subtilis HE were 12 ± 0.3 mm and 16 ± 0.3 mm, respectively.

`CC(C)(O/N=C(\C(=O)N[C@@H]1C(=O)N2C(C(=O)[O-])=C(C[n+]3ccccc3)CS[C@H]12)c1csc(N)n1)C(=O)O` [Ceftazidim] returned a Zone of inhibition with B. licheniformis PA (setting [1]) of 0 mm. Besides, in the experiment on B. subtilis HE, the “Sensitivity or resistance of the strain” value is “sensitive” and the Zone of inhibition is 8 ± 0.2 mm.

On to `CO/N=C(\C(=O)N[C@@H]1C(=O)N2C(C(=O)O)=CCS[C@H]12)c1csc(N)n1` [Ceftizoxim], for which the Zone of inhibition with B. licheniformis PA (setting [1]) and with B. subtilis HE was 0 mm throughout.

For the compound `CO/N=C(\C(=O)N[C@@H]1C(=O)N2C(C(=O)O)=C(CSc3nc(=O)c(=O)[nH]n3C)CS[C@H]12)c1csc(N)n1` [Ceftriaxon], the Zone of inhibition with B. licheniformis PA (setting [1]) is recorded as 12 ± 0.2 mm; in the experiment with B. subtilis HE, 18 ± 0.3 mm.

On to `CO/N=C(\C(=O)N[C@@H]1C(=O)N2C(C(=O)O)=C(COC(N)=O)CS[C@H]12)c1ccco1` [Cefuroxim], for which the Zone of inhibition in the experiment on B. licheniformis PA (setting [1]) and with B. subtilis HE was 0 mm each time. The “Sensitivity or resistance of the strain” value with B. licheniformis PA (strain B. licheniformis PA) and with B. subtilis HE was “resistant” throughout.

For `CC(=O)OCC1=C(C(=O)O)N2C(=O)[C@@H](NC(=O)Cc3cccs3)[C@H]2SC1` [Cephalothin], the Zone of inhibition in the experiment on B. licheniformis PA (setting [1]) is recorded as 20 ± 0.4 mm; in the experiment on B. subtilis HE, 32 ± 0.5 mm.

With `O=C(N[C@H](CO)[C@H](O)c1ccc([N+](=O)[O-])cc1)C(Cl)Cl` [Chloramphenicol], the Zone of inhibition in the experiment on B. licheniformis PA (setting [1]) was found to be 10 ± 0.1 mm; in the experiment on B. subtilis HE it was 16 ± 0.2 mm.

For the compound `CCC[C@@H]1C[C@@H](C(=O)N[C@@H]([C@H]2O[C@H](SC)[C@H](O)[C@@H](O)[C@H]2O)[C@H](C)Cl)N(C)C1` [Clindamycin], the Zone of inhibition in the experiment with B. licheniformis PA (setting [1]) was found to be 0 mm; in the experiment with B. subtilis HE, 10 ± 0.3 mm.

Consider `C[C@@H](O)[C@H]1C(=O)N2C(C(=O)O)=C(SCCN=CN)C[C@H]12` [Imipenem], for which the Zone of inhibition in the experiment with B. licheniformis PA (setting [1]) stood at 32 ± 0.3 mm; in the experiment with B. subtilis HE it was 36 ± 0.4 mm.

`NC[C@H]1O[C@H](O[C@H]2[C@H](O)[C@@H](O[C@H]3O[C@H](CO)[C@@H](O)[C@H](N)[C@H]3O)[C@H](N)C[C@@H]2N)[C@H](O)[C@@H](O)[C@@H]1O` [Kanamycin]: the Zone of inhibition in the experiment with B. licheniformis PA (setting [1]) is reported as 20 ± 0.1 mm; with B. subtilis HE it was 23 ± 0.1 mm.

As for `COc1cccc(OC)c1C(=O)N[C@@H]1C(=O)N2[C@@H]1SC(C)(C)[C@@H]2C(=O)O` [Methicillin], the Zone of inhibition is reported as 0 mm with B. licheniformis PA (setting [1]) and 18 ± 0.1 mm with B. subtilis HE. The results for the “Sensitivity or resistance of the strain” value with B. licheniformis PA (strain B. licheniformis PA) and in the experiment with B. subtilis HE were “resistant” and “sensitive”, respectively.

Consider `CC1(C)S[C@@H]2[C@H](NC(=O)[C@H](NC(=O)N3CCN(S(C)(=O)=O)C3=O)c3ccccc3)C(=O)N2[C@H]1C(=O)O` [Mezlocillin], for which the Zone of inhibition with B. licheniformis PA (setting [1]) came out at 17 ± 0.2 mm; with B. subtilis HE, 20 ± 0.3 mm.

In the case of `CO[C@@]1(NC(=O)C(C(=O)O)c2ccc(O)cc2)C(=O)N2C(C(=O)O)=C(CSc3nnnn3C)CO[C@@H]21` (stereo partly shown) [Moxalactam], the Zone of inhibition with B. licheniformis PA (setting [1]) and with B. subtilis HE was 12 ± 0.3 mm throughout.

`O=C1CN(/N=C/c2ccc([N+](=O)[O-])o2)C(=O)N1` [Nitrofurantoin]: the Zone of inhibition in the experiment on B. licheniformis PA (setting [1]) was 18 ± 0.1 mm; in the experiment on B. subtilis HE it was 16 ± 0.2 mm.

`CCn1cc(C(=O)O)c(=O)c2cc(F)c(N3CCNCC3)cc21` [Norfloxacin]: the Zone of inhibition with B. licheniformis PA (setting [1]) and with B. subtilis HE was 24 ± 0.2 mm each time.

With `Cc1onc(-c2ccccc2)c1C(=O)N[C@@H]1C(=O)N2[C@@H]1SC(C)(C)[C@@H]2C(=O)O` [Oxacillin], in the experiment with B. licheniformis PA (setting [1]), the Zone of inhibition is 0 mm. In addition, in the experiment with B. subtilis HE, the “Sensitivity or resistance of the strain” value is recorded as “sensitive” and the Zone of inhibition was 14 ± 0.3 mm.

For `CCN1CCN(C(=O)N[C@@H](C(=O)N[C@@H]2C(=O)N3[C@@H]2SC(C)(C)[C@@H]3C(=O)O)c2ccccc2)C(=O)C1=O` [Piperacillin], the Zone of inhibition in the experiment with B. licheniformis PA (setting [1]) amounted to 12 ± 0.1 mm; with B. subtilis HE it was 18 ± 0.3 mm.

Take `CN(C)[C@@H]1C(O)=C(C(N)=O)C(=O)[C@@]2(O)C(O)=C3C(=O)c4c(O)cccc4[C@@](C)(O)[C@H]3C[C@@H]12` [Tetracycline]: the Zone of inhibition in the experiment on B. licheniformis PA stood at 24 ± 0.2 mm; in the experiment on B. subtilis HE it was 24 ± 0.3 mm.

As for `CC1(C)S[C@@H]2[C@H](NC(=O)[C@H](C(=O)O)c3ccsc3)C(=O)N2[C@H]1C(=O)O` [Ticarcillin], the Zone of inhibition in the experiment on B. licheniformis PA (setting [1]) is on record as 20 ± 0.1 mm; in the experiment with B. subtilis HE it was 24 ± 0.4 mm. The “Sensitivity or resistance of the strain” value with B. licheniformis PA (strain B. licheniformis PA) and with B. subtilis HE was “sensitive” each time.

`NC[C@H]1O[C@H](O[C@H]2[C@H](O)[C@@H](O[C@H]3O[C@H](CO)[C@@H](O)[C@H](N)[C@H]3O)[C@H](N)C[C@@H]2N)[C@H](N)C[C@@H]1O` [Tobramycin]: the figures for the Zone of inhibition with B. licheniformis PA (setting [1]) and in the experiment on B. subtilis HE were 20 ± 0.2 mm and 24 ± 0.3 mm, respectively.

Regarding `COc1cc(Cc2cnc(N)nc2N)cc(OC)c1OC` [Trimethoprim], the Zone of inhibition in the experiment with B. licheniformis PA (setting [1]) and in the experiment on B. subtilis HE was 24 ± 0.1 mm in each case.

Turning to `CN[C@H](CC(C)C)C(=O)N[C@H]1C(=O)N[C@@H](CC(N)=O)C(=O)N[C@H]2C(=O)N[C@H]3C(=O)N[C@H](C(=O)N[C@H](C(=O)O)c4cc(O)cc(O)c4-c4cc3ccc4O)[C@H](O)c3ccc(c(Cl)c3)Oc3cc2cc(c3O[C@@H]2O[C@H](CO)[C@@H](O)[C@H](O)[C@H]2O[C@H]2C[C@](C)(N)[C@H](O)[C@H](C)O2)Oc2ccc(cc2Cl)[C@H]1O` [Vancomycin], the Zone of inhibition with B. licheniformis PA and in the experiment with B. subtilis HE was 12 ± 0.1 mm in each case.

As for Bactrim, the Zone of inhibition in the experiment on B. licheniformis PA (setting [1]) was determined as 30 ± 0.1 mm; in the experiment with B. subtilis HE, 30 ± 0.2 mm.

Regarding Gentamycin, the Zone of inhibition in the experiment with B. licheniformis PA (setting [1]) turned out to be 20 ± 0.1 mm; in the experiment with B. subtilis HE, 24 ± 0.2 mm.

Regarding Polymyxin E, the Zone of inhibition with B. licheniformis PA (setting [1]) was 0 mm; in the experiment on B. subtilis HE it was 10 ± 0.1 mm. Further, the “Sensitivity or resistance of the strain” value in the experiment with B. subtilis HE is “sensitive”.
